Source: the NIST ThermoML archive (doi:10.1021/acs.jced.6b00575)

Settings: 101.33 kPa, Liquid; for electrical conductivity: Alternating current cell with electrodes; for viscosity: Concentric cylinders viscometry; for mass density: Vibrating tube method

CCC(=O)[NH+](C)C.O=S(=O)([N-]S(=O)(=O)C(F)(F)F)C(F)(F)F
Settings	electrical conductivity [S/m]	mass density [kg/m3]	viscosity [mPa·s]
273.15 K	0.053	1546.8	583.6
278.15 K	0.075	1541.52	401.3
283.15 K	0.103	1536.2	284.2
288.15 K	0.136	1530.91	207.2
293.15 K	0.177	1525.62	154.9
298.15 K	0.225	1520.35	117.7
303.15 K	0.28	1515.12	91.33
313.15 K	0.415	1504.73	57.92
323.15 K	0.585	1494.43	39.33
333.15 K	0.787	1484.21	27.84
343.15 K	1.01	1474.06	20.58
353.15 K	1.28	1463.98	15.67
363.15 K	–	1453.97	12.28

CC(=O)[NH+](C)C.O=S(=O)([N-]S(=O)(=O)C(F)(F)F)C(F)(F)F [N,N-dimethylacetamidium bis(trifluoromethanesulfonyl)amide]
Settings	electrical conductivity [S/m]	mass density [kg/m3]	viscosity [mPa·s]
313.15 K	0.403	1549.8	67.83
323.15 K	0.574	1539.4	44.71
333.15 K	0.782	1529.1	31.31
343.15 K	1.02	1518.6	22.85
353.15 K	1.29	1508.1	17.35
363.15 K	–	1497.8	13.51

CC(=O)N(C)C [N,N-dimethylethanamide]
Settings	mass density [kg/m3]	viscosity [mPa·s]
273.15 K	959.16	1.41
278.15 K	954.56	1.29
283.15 K	949.95	1.19
288.15 K	945.35	1.09
293.15 K	940.74	1
298.15 K	936.13	0.946
303.15 K	931.51	0.883
313.15 K	922.26	0.772
323.15 K	912.99	0.692
333.15 K	903.68	0.614
343.15 K	894.31	0.553
353.15 K	884.9	0.502
363.15 K	875.43	0.459

CCC(=O)N(C)C [N,N-dimethylpropionamide]
Settings	mass density [kg/m3]	viscosity [mPa·s]
273.15 K	942.45	1.44
278.15 K	938.02	1.32
283.15 K	933.6	1.21
288.15 K	929.18	1.11
293.15 K	924.75	1.02
298.15 K	920.32	0.958
303.15 K	915.93	0.892
313.15 K	907.04	0.778
323.15 K	898.13	0.696
333.15 K	889.17	0.618
343.15 K	880.17	0.556
353.15 K	871.11	0.504
363.15 K	861.99	0.46

CN(C)C=O [dimethylformamide]
Settings	mass density [kg/m3]	viscosity [mPa·s]
273.15 K	967.56	1.14
278.15 K	962.83	1.06
283.15 K	958.1	0.979
288.15 K	953.37	0.891
293.15 K	948.61	0.845
298.15 K	943.85	0.81
303.15 K	939.07	0.765
313.15 K	929.5	0.684
323.15 K	919.86	0.615
333.15 K	910.17	0.535
343.15 K	900.41	0.484
353.15 K	890.57	0.436
363.15 K	880.65	0.398
